Test results as given in EP1379634B1 (THE UNIVERSITY OF GEORGIA RESEARCH FOUNDATION, INC., priority 2001, dated 2002).
Residues, ends and D or L forms follow the SMILES beside them. *: point of attachment. Cbz = O=C(OCc1ccccc1)*; CH2F = FC*

Key:
[1] = biological target: Cathepsin D (Homo sapiens, UniProt P07339); assay: Selectivity test (Steps VI and IX), Cathepsin D; format: biochemical; settings: vehicle 4 X 10^-5 M; pH 7.1, substrate Z-RGFFP-AFC; 40 µM
Experimental: In order to perform the assay, the vehicle (for Step VI) or inhibitor (for Step IX) were incubated with the appropriate substrate in the correct assay buffer and allowed to equilibrate. Subsequently, the protease was added, and the assay was allowed to incubate for an appropriate time. The concentrations used in this experiment were as follows: Vehicle was set up at 4 X 10^-5 M in final assay buffer; Inhibitor was set up at 3 X 10^-10 M in the final assay buffer. Preferably the dosages employed should be the minimal amount of vehicle or inhibitor necessary to induce inhibition. […] Substrates were set up based upon the preferred substrate for cleavage of the particular enzyme.
Positive controls were set up similarly as described for test controls, except that a solvent blank was added in substitution for the inhibitor or vehicle (in a volume equal to the volume of inhibitor or vehicle addition). All of the inhibitors and vehicles could be dissolved in dimethylsulfoxide (DMSO), and therefore, this was the solvent of choice. Negative controls were set up by adding the inhibitor or vehicle and the preferred substrates in a tube without the protease. […]
Percent inhibition was calculated as: %Inhibition = ((AFC positive for "SI"−AFC negative for "SI")−(AFC test−AFC negative for "SI"))/(AFC positive for "SI"−AFC negative for "SI") × 100 [formula] […]

[2] = system: Taenia crassiceps cysts; assay: Short-term protection of BALB/c mice from cysticercosis infection; format: in vivo; settings: repeat study, BALB/c mice
[3] = system: normal BALB/c mouse splenocytes; assay: Splenocyte proliferation (3H-thymidine incorporation) with or without Con-A; format: cell-based

Sequence of Cathepsin D (P07339 65-412): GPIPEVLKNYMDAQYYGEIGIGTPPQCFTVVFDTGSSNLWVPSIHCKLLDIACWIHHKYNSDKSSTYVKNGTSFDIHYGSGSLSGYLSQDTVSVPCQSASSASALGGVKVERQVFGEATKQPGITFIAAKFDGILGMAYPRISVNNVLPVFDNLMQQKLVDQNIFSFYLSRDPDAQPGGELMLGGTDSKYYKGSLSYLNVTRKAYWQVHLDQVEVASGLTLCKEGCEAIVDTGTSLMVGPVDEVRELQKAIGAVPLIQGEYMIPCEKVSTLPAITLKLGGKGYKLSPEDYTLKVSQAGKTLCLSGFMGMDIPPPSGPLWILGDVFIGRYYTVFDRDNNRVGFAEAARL

Q: How did the “% inhibition” value [1] turn out when Mu-Leu-Tyr-AFC [Mu-LY-AFC] was run?
A: Its value is 0%.

Q: Which “protection from cysticercosis infection, subsequent identical prophylactic experiment” value [2] does the source give for `CC(C)C[C@H](NC(=O)OCc1ccccc1)C(=O)N[C@@H](CC(C)C)C(=O)N[C@@H](Cc1ccc(O)cc1)C(=O)CF` [Z-LLY-FMK, Z-Leu-Leu-Tyr-FMK] (Cbz-Leu-Leu-Tyr-CH2F) here?
A: Its value is 75%-90%.

Q: What about the “proliferative response (3H-thymidine incorporation)” value ([3]; inhibitor alone) of the same compound?
A: Its value is “do not induce a proliferative response”.

Q: What about the “toxicity to splenocytes in vitro” value ([3]; preliminary results) of the same compound?
A: Its value is “nontoxic”.
